Active and inactive are the calls of the source. The calls are words filed in the database; no cut-off is given here.
Legend:
[1] = Toxicity in male ICR mouse assessed as histopathological change in lung at 100 mg/kg, ip measured after 14 days by hematoxylin and eosin staining based analysis; type: organism-based; conditions: in vivo, 336 h, time 14 day
[2] = biological target: Protein cereblon/MAP kinase-interacting serine/threonine-protein kinase 2 (Homo sapiens, UniProt Q96SW2+Q9HBH9); assay: PROTAC activity at CRBN/MNK2 in human MV4-11 cells assessed as inhibition of phosphorylated eIF4E level incubated for 24 hrs by immunoblot analysis; type: cell-based
Protein cereblon/MAP kinase-interacting serine/threonine-protein kinase 2, sequence (Q9HBH9 whole entry): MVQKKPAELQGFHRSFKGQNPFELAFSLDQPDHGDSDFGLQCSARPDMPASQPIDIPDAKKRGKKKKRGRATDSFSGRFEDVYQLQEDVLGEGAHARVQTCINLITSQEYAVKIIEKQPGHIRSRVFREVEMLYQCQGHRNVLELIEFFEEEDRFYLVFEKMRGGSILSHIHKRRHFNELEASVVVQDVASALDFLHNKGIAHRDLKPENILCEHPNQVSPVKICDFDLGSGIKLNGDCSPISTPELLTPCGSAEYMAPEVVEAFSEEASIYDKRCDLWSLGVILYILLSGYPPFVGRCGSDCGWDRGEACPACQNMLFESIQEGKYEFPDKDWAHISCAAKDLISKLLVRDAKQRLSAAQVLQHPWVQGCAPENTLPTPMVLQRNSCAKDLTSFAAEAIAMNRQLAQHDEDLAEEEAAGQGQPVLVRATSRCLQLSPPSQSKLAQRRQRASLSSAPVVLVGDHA
Protein cereblon/MAP kinase-interacting serine/threonine-protein kinase 2, sequence (Q96SW2 whole entry): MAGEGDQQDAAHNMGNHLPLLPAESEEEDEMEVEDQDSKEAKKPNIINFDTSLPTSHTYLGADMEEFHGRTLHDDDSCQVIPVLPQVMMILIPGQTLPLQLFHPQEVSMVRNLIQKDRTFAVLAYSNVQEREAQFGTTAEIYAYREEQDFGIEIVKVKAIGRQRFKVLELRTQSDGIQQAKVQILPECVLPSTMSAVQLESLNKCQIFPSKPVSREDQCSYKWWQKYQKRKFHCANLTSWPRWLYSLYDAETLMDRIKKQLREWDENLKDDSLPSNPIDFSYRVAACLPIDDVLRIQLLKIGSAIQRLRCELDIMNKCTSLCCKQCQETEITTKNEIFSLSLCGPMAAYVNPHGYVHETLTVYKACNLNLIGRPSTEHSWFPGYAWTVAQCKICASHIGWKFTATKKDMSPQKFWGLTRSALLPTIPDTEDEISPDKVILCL

[3] = system: MV4-11; assay: Upregulation of ubiquitin-mediated protein degradation pathway related protein expression in human MV4-11 cells by GO analysis; type: functional, cell-based
[4] = system: MV4-11; assay: Induction of apoptosis in human MV4-11 cells assessed as viable cells at 100 nM incubated for 24 hrs by Annexin V-FITC/PI dual staining based flow cytometric analysis (reference value: 94.9 %); type: functional; conditions: read-out: Activity
[5] = system: Mus musculus; assay: In vivo induction of MNK2 degradation in human MV4-11 cells xenografted in nude female NSG mouse at 20 mg/kg, ip qd administrated for 16 days; type: functional, organism-based; conditions: time 16.0 day
[6] = system: MV4-11; assay: Induction of apoptosis in human MV4-11 cells assessed as necrotic cells at 30 nM incubated for 24 hrs by Annexin V-FITC/PI dual staining based flow cytometric analysis (reference value: 0.16 %); type: functional
[7] = system: MM1.S; assay: Anti-proliferative activity against human MM1.S cells measured after 120 hrs by CCK8 assay
[8] = system: MV4-11; assay: Upregulation of cell cycle signaling pathways related protein expression in human MV4-11 cells by KEGG analysis; type: functional, cell-based
[9] = system: MDA-MB-231; assay: Anti-proliferative activity against human MDA-MB-231 cells measured after 96 hrs by CCK8 assay; conditions: MDA-MB-231, 96 h
[10] = Clearance in male Sprague-Dawley rat at 5 mg/kg, ip measured up to 24 hrs by LC-MS analysis; type: ADME, organism-based; conditions: in vivo
[11] = Clearance in male Sprague-Dawley rat at 1 mg/kg, iv measured up to 24 hrs by LC-MS analysis; type: ADME, organism-based; conditions: in vivo
[12] = system: MV4-11; assay: Upregulation of apoptosis pathway related protein expression in human MV4-11 cells by GO analysis; type: functional, cell-based
[13] = Hepatotoxicity in nude female NSG mouse xenografted with human MV4-11 cells assessed as change in serum ALP level at 20 mg/kg, ip qd administrated for 16 days; type: toxicity, organism-based; conditions: in vivo, 384 h, time 16 day
[14] = system: Mus musculus; assay: In vivo PROTAC activity at CRBN/MNK1 in human MV4-11 cells xenografted in nude female NSG mouse assessed as reduction in phosphorylated eIF4E level at 20 mg/kg, ip qd administrated for 16 days by Western blot analysis; type: functional, organism-based; conditions: time 16.0 day
[15] = Toxicity in male ICR mouse assessed as change in serum AST level at 100 mg/kg, ip measured after 14 days; type: organism-based; conditions: in vivo, 336 h, time 14 day
[16] = Toxicity in male ICR mouse assessed as change in serum DBIL level at 100 mg/kg, ip measured after 14 days; type: organism-based; conditions: in vivo, 336 h, time 14 day
[17] = AUC (0 to t) in male Sprague-Dawley rat at 5 mg/kg, ip measured up to 24 hrs by LC-MS analysis; type: ADME, organism-based; conditions: in vivo
[18] = Hepatotoxicity in nude female NSG mouse xenografted with human MV4-11 cells assessed as change in serum TBA level at 20 mg/kg, ip qd administrated for 16 days; type: toxicity, organism-based; conditions: in vivo, 384 h, time 16 day
[19] = system: MOLM-13; assay: Anti-proliferative activity against human MOLM-13 cells measured after 72 hrs by CCK8 assay; conditions: MOLM-13, 72 h
[20] = Cmax in male Sprague-Dawley rat at 20 mg/kg, po measured up to 24 hrs by LC-MS analysis; type: ADME, organism-based; conditions: in vivo
[21] = system: MV4-11; assay: Antitumor activity against human MV4-11 cells xenografted in nude female NSG mouse assessed as tumor growth inhibition at 20 mg/kg, ip qd administrated for 16 days by caliper method relative to control; type: functional; conditions: MV4-11, 384 h, time 16 day, read-out: TGI
[22] = system: MV4-11; assay: Induction of apoptosis in human MV4-11 cells assessed as necrotic cells at 100 nM incubated for 24 hrs by Annexin V-FITC/PI dual staining based flow cytometric analysis (reference value: 0.16 %); type: functional
[23] = system: MV4-11; assay: Upregulation of cell cycle regulation related protein expression in human MV4-11 cells by GO analysis; type: functional, cell-based
[24] = system: MV4-11; assay: Downregulation of SBNO2 expression level in human MV4-11 cells at 300 nM incubated for 24 hrs by DIA-based quantitative proteomics analysis; type: functional, cell-based
[25] = Toxicity in male ICR mouse assessed as change in serum ALP level at 100 mg/kg, ip measured after 14 days; type: organism-based; conditions: in vivo, 336 h, time 14 day
[26] = Toxicity in male ICR mouse assessed as histopathological change in liver at 100 mg/kg, ip measured after 14 days by hematoxylin and eosin staining based analysis; type: organism-based; conditions: in vivo, 336 h, time 14 day
[27] = system: MV4-11; assay: Anti-proliferative activity against human MV4-11 cells measured after 72 hrs by CCK8 assay; conditions: MV4-11, 72 h
[28] = system: MV4-11; assay: Upregulation of PI3K-Akt pathway related protein expression in human MV4-11 cells by KEGG analysis; type: functional, cell-based
[29] = Tmax in male Sprague-Dawley rat at 5 mg/kg, ip measured up to 24 hrs by LC-MS analysis; type: ADME, organism-based; conditions: in vivo
[30] = system: MV4-11; assay: Induction of apoptosis in human MV4-11 cells assessed as late apoptotic cells at 30 nM incubated for 24 hrs by Annexin V-FITC/PI dual staining based flow cytometric analysis (reference value: 1.48 %); type: functional
[31] = Toxicity in nude female NSG mouse xenografted with human MV4-11 cells assessed as change in serum BUN level at 20 mg/kg, ip qd administrated for 16 days; type: organism-based; conditions: in vivo, 384 h, time 16 day
[32] = Half life in male Sprague-Dawley rat at 5 mg/kg, ip measured up to 24 hrs by LC-MS analysis; type: ADME, organism-based; conditions: in vivo
[33] = system: MV4-11; assay: Effect on IKZF3 expression in human MV4-11 cells at 10 to 1000 nM incubated for 24 hrs by immunoblot analysis; type: functional, cell-based; conditions: dose 10-1000 nM
[34] = AUC (0 to t) in male Sprague-Dawley rat at 1 mg/kg, iv measured up to 24 hrs by LC-MS analysis; type: ADME, organism-based; conditions: in vivo
[35] = system: MV4-11; assay: Upregulation of G2/M transition pathway related protein expression in human MV4-11 cells by GO analysis; type: functional, cell-based
[36] = system: MV4-11; assay: Upregulation of mTOR pathway related protein expression in human MV4-11 cells by KEGG analysis; type: functional, cell-based
[37] = system: MV4-11; assay: Upregulation of protein translation pathway related protein expression in human MV4-11 cells by GO analysis; type: functional, cell-based
[38] = Toxicity in nude female NSG mouse xenografted with human MV4-11 cells assessed as change in serum AST level at 20 mg/kg, ip qd administrated for 16 days; type: organism-based; conditions: in vivo, 384 h, time 16 day
[39] = system: MV4-11; assay: Induction of apoptosis in human MV4-11 cells assessed as late apoptotic cells at 100 nM incubated for 24 hrs by Annexin V-FITC/PI dual staining based flow cytometric analysis (reference value: 1.48 %); type: functional
[40] = system: MV4-11; assay: Induction of apoptosis in human MV4-11 cells assessed as early apoptotic cells at 30 nM incubated for 24 hrs by Annexin V-FITC/PI dual staining based flow cytometric analysis (reference value: 3.42 %); type: functional

IC50 [2]: 22.1 nM
IC50 [7]: 240 nM
IC50 [9]: 2060 nM
CL/F [10]: 8.75 mL/min/kg
clearance [11]: 2.38 mL/min/kg
AUC(0-t) at 24 h [17]: 9630 ng·h/mL
IC50 [19]: 610 nM
Cmax [20]: 160 ng/mL
IC50 [27]: 45 nM
Tmax [29]: 0.5 h
half-life [32]: 5.2 h
AUC(0-t) at 24 h [34]: 7020 ng·h/mL
Structure (SMILES): O=C1CCC(N2Cc3c(NC(=O)CCCCCC(=O)N4CCC(C(=O)Nc5ncc(-c6ccccc6)s5)CC4)cccc3C2=O)C(=O)N1 (stereo not given)
Activity [1]: Non-toxic
Activity [3]: Active
viability at 0.1 µM [4]: 71.5%
Activity [5]: inactive
Activity [6]: 0.27%
Activity [8]: Active
Activity [12]: Active
Activity [13]: Non-toxic
Activity [14]: Active
Activity [15]: Non-toxic
Activity [16]: Non-toxic
Activity [18]: Non-toxic
inhibition in vivo at 20 mg/kg [21]: > 90%
Activity [22]: 0.69%
Activity [23]: Active
Activity [24]: Active
Activity [25]: Non-toxic
Activity [26]: Non-toxic
Activity [28]: Active
Activity [30]: 7.49%
Activity [31]: Non-toxic
Activity [33]: No effect
Activity [35]: Active
Activity [36]: Active
Activity [37]: Active
Activity [38]: Non-toxic
Activity [39]: 13.7%
Activity [40]: 6.46%
